Values of other authors in patent publication US12311060B2 (priority 2017, dated 2025).

Conditions: rodent models

For `C/C=C1\C2C=C(C)C[C@]1(N)c1ccc(=O)[nH]c1C2` (stereo in doubt) [huperzine A, (1R,9S,13E)-1-amino-13-ethylidene-11-methyl-6-azatricyclo[7.3.1.02,7]trideca-2(7),3,10-trien-5-one], which “efficacy as an anticonvulsant in words” value is on record?
Its value is “very high efficacy”.
